Source: PubChem BioAssay AID1996
In brackets after ≈: the same amount, converted by molar mass.

Details: buffer; pH 7.4; 200.0 µM

Point of comparison: `Cc1ccc(C(C)NC(=O)c2cccs2)cc1` (stereo not given), solubility kinetic 20.7 µg/mL (≈ 84.4 µM). Against it:
- COc1ccc(S(=O)(=O)NCC(=O)NCCc2ccc(OC)c(OC)c2)cc1 — higher, > 61.3 µg/mL
- Cc1cccc(C(=O)NCCCNC(=O)c2ccccn2)c1 — higher, > 44.6 µg/mL
- O=[N+]([O-])c1cccc(S(=O)(=O)N2CCCCC2)c1 — 1.8-fold higher, 37.5 µg/mL (≈ 139 µM)
- Cc1cccc(NC(=S)NC2CCSc3ccccc32)c1 (stereo not given) — lower, < 0.3 µg/mL
- CSc1sc(C(=O)NCC2CC2)c(-c2cccs2)c1C#N — 2.4-fold lower, 8.6 µg/mL (≈ 25.7 µM)
- COCc1cc(=O)[nH]c(/N=C(\N)Nc2cccc(Cl)c2)n1 — 7.7-fold lower, 2.7 µg/mL (≈ 8.77 µM)
- CC(=O)Nc1cccc(C(=O)NCCc2ccco2)c1 — higher, > 40.8 µg/mL
- CC1CCC(C(C)C)C(OCC(O)CNC(C)C)C1.Cl (stereo not given) — higher, > 46.2 µg/mL
- Cc1ccc(O)c(CNc2nc3ccccc3[nH]2)c1 — higher, > 38 µg/mL
- O=C(c1ccccc1)c1nc2c(n1O)CCCCC2 — higher, > 38.4 µg/mL
- CC(=O)N1CCN(CC(O)Cn2c3ccccc3c3ccccc32)CC1 (stereo not given) — higher, > 52.7 µg/mL
- COC(=O)c1sccc1NC(=O)Nc1ccc(OC)c(OC)c1 — higher, > 50.5 µg/mL
- COc1ccc(C(=O)CNc2cccc(F)c2)cc1 — 4.8-fold lower, 4.3 µg/mL (≈ 16.6 µM)
- COCCNc1ncnc2c1cnn2Cc1ccccc1Cl — higher, > 47.7 µg/mL
- Cc1ccc(C(=O)NCCCNC(=O)c2ccccn2)cc1 — higher, > 44.6 µg/mL
- COc1ccccc1N1CCN(C(=O)c2cc3cc(C)ccc3[nH]2)CC1 — lower, < 0.2 µg/mL
- S=C(Nc1ccccc1)Nc1ccccc1-n1cccc1 — 1.7-fold higher, 34.2 µg/mL (≈ 117 µM)
- CC1CN(C(=S)Nc2ccc(F)cc2F)CC(C)O1 (stereo not given) — higher, > 43 µg/mL
- Cc1cc(=O)[nH]c(SCC(=O)c2ccc(F)c(C)c2)n1 — higher, > 43.8 µg/mL
- CCc1ccc2nc(SCC(=O)NCC3CCCO3)c(C#N)cc2c1 (stereo not given) — 11-fold lower, 1.9 µg/mL (≈ 5.35 µM)
- O=[N+]([O-])c1cccnc1Sc1ccc(Cl)cc1 — 30-fold lower, 0.7 µg/mL (≈ 2.62 µM)
- CC(=O)Nc1ccc(N/C=C/C(=O)c2ccc(C)cc2)cc1 — 6.5-fold lower, 3.2 µg/mL (≈ 10.9 µM)
- C=CCN=C1S/C(=C\c2ccc(Cl)cc2)C(=O)N1CC=C — 10-fold lower, 2 µg/mL (≈ 6.27 µM)
- COCCOC(=O)C1=C(C)NC2(O)c3ccccc3C(=O)C12O (stereo not given) — higher, > 47.9 µg/mL
- CN(C)C(=O)c1ccc(NC(=O)COC(=O)C2(c3ccccc3)CCCC2)cc1 — within 1.5-fold, 24.3 µg/mL (≈ 61.6 µM)
- O=C(NNC(=O)c1ccccc1C(=O)O)c1cc2ccccc2o1 — higher, > 48.6 µg/mL
- COC(=O)NC1(C(F)(F)F)C(=O)Nc2c1c(=O)n(C)c(=O)n2C (stereo not given) — 2.3-fold higher, 47.3 µg/mL (≈ 141 µM)
- COc1ccccc1C(=O)NC1CCCc2ccccc21 (stereo not given) — 1.6-fold higher, 33.2 µg/mL (≈ 118 µM)
- COc1cc2c(cc1OC)CN(C(=O)/C=C/c1ccc(F)cc1)CC2 — 2.3-fold higher, 46.9 µg/mL (≈ 137 µM)
- COC(=O)c1cc(C(=O)OCC(=O)Nc2ccc(N3CCOCC3)cc2)cc([N+](=O)[O-])c1 — 1.8-fold lower, 11.8 µg/mL (≈ 26.6 µM)
- Nc1nccnc1C(=O)OCC(=O)C12CC3CC(CC(C3)C1)C2 — 7.1-fold lower, 2.9 µg/mL (≈ 9.2 µM)
- Cc1cc(C)c(NS(=O)(=O)c2c(C)noc2C)c(C)c1 — 1.6-fold higher, 33.3 µg/mL (≈ 113 µM)
- COC(=O)Cn1cc(/C=C/[N+](=O)[O-])c2ccccc21 — within 1.5-fold, 30.6 µg/mL (≈ 118 µM)
- Cc1cccc(N2C(=O)CN(Cc3cccs3)C2=S)c1 — 4.5-fold lower, 4.6 µg/mL (≈ 15.2 µM)
- S=C(NCc1cccnc1)c1ccccc1 — higher, > 34.2 µg/mL
- O=C(Cc1cccc2ccccc12)Nc1cccnc1 — 1.9-fold higher, 39 µg/mL (≈ 149 µM)
- CCn1cc(S(=O)(=O)Nc2ccc(C)c(Cl)c2)cn1 — higher, > 45 µg/mL
- COc1ccc2c(c1)C(=O)N(Cc1ccccc1)C(=O)C2(C)C — 2-fold lower, 10.5 µg/mL (≈ 33.9 µM)
- Cc1ccc(CNC(=O)CCSCc2ccccc2F)cc1 — 1.8-fold lower, 11.8 µg/mL (≈ 37.2 µM)
- CCC(CC)C(=O)c1c[nH]c(C(=O)NC2CCCCCC2)c1 — 10-fold lower, 2 µg/mL (≈ 6.57 µM)
- O=c1c2cc(NC(=S)NC3CC3)ccc2nc2n1CCCCC2 — 1.7-fold higher, 34.7 µg/mL (≈ 106 µM)
- O=C(NCCc1ccccc1)c1cnc2n(c1=O)CCS2 — 2.2-fold higher, 45 µg/mL (≈ 149 µM)
- Cc1cc(C(=O)N2CCN(c3ccc([N+](=O)[O-])cc3)CC2)n[nH]1 — higher, > 47.3 µg/mL
- O=C(Nc1cc(S(=O)(=O)N2CCOCC2)ccc1Cl)c1cc([N+](=O)[O-])ccc1Cl — 7.4-fold lower, 2.8 µg/mL (≈ 6.08 µM)
- O=C(Nc1ncccc1O)c1ccc(Oc2ccccc2)cc1 — higher, > 45.9 µg/mL
- O=C1NC2=C(C(=O)CCC2)C(c2cccc([N+](=O)[O-])c2)N1 (stereo not given) — higher, > 43.1 µg/mL
- COc1ccc(C)cc1NC(=S)N1CCOCC1 — higher, > 40 µg/mL
- N#Cc1c(-c2ccccc2)cc(-c2ccccc2)[nH]c1=O — 34-fold lower, 0.6 µg/mL (≈ 2.2 µM)
- O=C(O)C1CCC(CNCc2ccncc2)CC1 (stereo not given) — 1.8-fold higher, 36.7 µg/mL (≈ 148 µM)
- CCc1ccccc1NC(=O)NCc1ccccn1 — higher, > 38.3 µg/mL
- O=C(OCC(=O)N1CCN(C(=O)c2ccco2)CC1)c1c(Cl)cccc1Cl — higher, > 61.7 µg/mL
- Cc1cccc(C)c1N1CCN(c2c(C)cccc2C)CC1 — lower, < 0.3 µg/mL
- Cc1ccc2nc(SCC(=O)Nc3cc(C)on3)c(C)cc2c1 — lower, < 0.2 µg/mL
- OCCCNc1ncnc2c1[nH]c1ccccc12 — 1.7-fold higher, 35.6 µg/mL (≈ 147 µM)
- N#CN/C(=N\S(=O)(=O)c1ccccc1)c1ccccc1 — 1.6-fold higher, 32.3 µg/mL (≈ 113 µM)
- COc1ccccc1C(=O)NCCC(=O)NCc1ccncc1 — higher, > 47 µg/mL
- Cc1ccc2cccc(N)c2n1 — within 1.5-fold, 19 µg/mL (≈ 120 µM)
- CC1(C)Nc2ccccc2N(Cc2ccc([N+](=O)[O-])cc2)C1=O — higher, > 46.7 µg/mL
- CNCC(=O)O — 3.7-fold lower, 5.6 µg/mL (≈ 62.9 µM)
- COc1ccc(CCNCc2sccc2C)cc1.Cl — higher, > 44.7 µg/mL
- CC(C)(C)S(=O)(=O)c1cnc(N2CCCC2)nc1N — 1.8-fold higher, 37.9 µg/mL (≈ 133 µM)
- CCN/C=C(\C#N)S(=O)(=O)c1ccc(Br)cc1 — 1.7-fold higher, 34.8 µg/mL (≈ 110 µM)
- CCN(Cc1cnn(C)c1)Cc1nc(Cc2ccccc2Cl)no1 — higher, > 51.9 µg/mL
- COc1ccc(C2NC(=O)NC(C)=C2[N+](=O)[O-])cc1OC (stereo not given) — higher, > 44 µg/mL
- O=C1NC(=S)S/C1=C\c1ccc2ccccc2c1 — 19-fold lower, 1.1 µg/mL (≈ 4.05 µM)
- Cc1cc(=O)cc(C)n1-c1ccccc1Br — 1.9-fold higher, 39.8 µg/mL (≈ 143 µM)
- COc1cc(OC)c(NC(=S)NCc2ccc(F)cc2)cc1Cl — 21-fold lower, 1 µg/mL (≈ 2.82 µM)
- Cc1ccc(C(=O)O/N=C(\N)c2ccccn2)cc1Cl — lower, < 0.2 µg/mL
- CC1Oc2ccccc2N(CC(=O)NC2CCCCC2)C1=O (stereo not given) — higher, > 45.4 µg/mL
- CC1CN=C(Nc2ccc(F)c(Cl)c2)S1 (stereo not given) — within 1.5-fold, 17.3 µg/mL (≈ 70.7 µM)
- Cc1nn(C)cc1S(=O)(=O)NCc1ccc2c(c1)OCO2 — higher, > 46.4 µg/mL
- O=C(COc1ccc(Cl)cc1)NC1CC1 — higher, > 33.9 µg/mL
- COc1ccccc1NC(=O)NC1CCS(=O)(=O)C1 (stereo not given) — higher, > 42.6 µg/mL
- O=C(Cc1cccs1)Nc1ccc(F)c(F)c1 — within 1.5-fold, 20.9 µg/mL (≈ 82.5 µM)
- Cc1ccc(CN2CCN(c3ncccn3)CC2)c(C)c1 — within 1.5-fold, 19.4 µg/mL (≈ 68.7 µM)
- N#CC1(NC(=O)Cn2cc(C(F)(F)F)ccc2=O)CCCC1 — higher, > 47 µg/mL
- CC(=O)Nc1c2c(nn1-c1cccc(Cl)c1)CS(=O)(=O)C2 — higher, > 48.9 µg/mL
- COC(=O)c1ccc(C(=O)OC)c(NC(=O)CSCC(=O)O)c1 — higher, > 51.2 µg/mL
- CN(CC(=O)NCCCN1CCOCC1)S(=O)(=O)c1ccc(Cl)cc1 — higher, > 58.5 µg/mL
- COc1ccccc1CC(=O)N1CCN(C(=O)c2ccco2)CC1 — 2.3-fold higher, 48.3 µg/mL (≈ 147 µM)
- COC(=O)CCN(C(=O)c1cccc([N+](=O)[O-])c1)c1ccccn1 — higher, > 49.4 µg/mL
- CC(=O)c1ccc(NC(=O)CSc2nc3ccccc3c(=O)n2CCCN2CCOCC2)cc1 — higher, > 72.1 µg/mL
- Cc1cccc2cc(-c3nc4ccc(C(=O)O)cc4[nH]3)c(=O)oc12 — within 1.5-fold, 26.9 µg/mL (≈ 84 µM)
- CC(C)c1ccc(NC(=O)c2ccccc2NC(=O)C2CCCCC2C(=O)O)cc1 (stereo not given) — 2.7-fold higher, 55.3 µg/mL (≈ 135 µM)
- NC(=O)Cn1c(=O)n(Cc2ccccc2)c(=O)c2cccnc21 — 1.6-fold higher, 33.8 µg/mL (≈ 109 µM)
- CCN(CC)c1nc(N2CCOCC2)nc2ccccc12.Cl — 2.1-fold higher, 42.8 µg/mL
- CC(OC(=O)c1cnc2ccccc2n1)c1ccccc1Cl (stereo not given) — within 1.5-fold, 14.8 µg/mL (≈ 47.3 µM)
- CCOC(=O)c1cc(NC(=O)N(C)C2CCCCC2)c(C)nc1C — higher, > 50 µg/mL
- O=C1/C(=C/c2ccccc2Cl)N2CCC1CC2 — within 1.5-fold, 22.8 µg/mL (≈ 92 µM)
- COC(=O)C1CCN(C(=O)c2cc(-c3ccco3)nc3ccccc23)CC1 — higher, > 54.7 µg/mL
- NC(=O)CS(=O)(=O)c1nc2ccccc2n1Cc1ccccn1 — higher, > 49.6 µg/mL
- c1ccc2c(c1)Cc1cc3ccccc3nc1-2 — 4.8-fold lower, 4.3 µg/mL (≈ 19.8 µM)
- Cc1ccc(NC(=O)CSc2nncs2)cc1Cl — higher, > 45 µg/mL
- COc1cc(C2NC(=O)CCC2[N+](=O)[O-])cc(OC)c1OC (stereo not given) — higher, > 46.5 µg/mL
- Cn1cc(-c2ccccc2C(=O)O)c(=O)c2cc(Cl)ccc21 — higher, > 47.1 µg/mL
- O=c1[nH]c(/C=C/c2ccccc2Cl)nc2ccccc12 — lower, < 0.3 µg/mL
- O=C(Cc1c(F)cccc1Cl)Nc1cc(S(=O)(=O)N2CCOCC2)ccc1N1CCCC1 — 10-fold lower, 2 µg/mL (≈ 4.15 µM)
- OC(CN1CCC(Cc2ccccc2)CC1)c1ccccc1 (stereo not given) — higher, > 44.3 µg/mL
- CC(=O)Nc1ccc(NC(=O)c2cc([N+](=O)[O-])cc([N+](=O)[O-])c2)cc1 — 2.6-fold lower, 7.9 µg/mL (≈ 22.9 µM)
- CC1CCCC(C)N1C(=O)CSc1nc2ccccc2c(=O)[nH]1 (stereo not given) — within 1.5-fold, 27.6 µg/mL (≈ 83.3 µM)
- O=C(Cc1ccccc1)Nc1ccc(NC(=O)c2ccco2)cc1Cl — 8.6-fold lower, 2.4 µg/mL (≈ 6.76 µM)
- CCOc1cccc(C(=O)Nc2ccc3c(c2)OCCO3)c1 — within 1.5-fold, 27.3 µg/mL (≈ 91.2 µM)
- CC(NS(=O)(=O)c1ccccc1)C(=O)NCCc1ccccn1 (stereo not given) — higher, > 50 µg/mL
- CCCC(=O)N(Cc1cc(=O)[nH]c2ccccc12)c1ccccc1 — higher, > 48.1 µg/mL
- O=c1c(Cc2ccc(F)cc2)c(O)ccn1CC1CCCO1 (stereo not given) — higher, > 45.5 µg/mL
- COc1ccc(S(=O)(=O)NCCCn2ccnc2)cc1Cl — higher, > 49.5 µg/mL
- COc1ccccc1NC(=O)O/N=C(\N)c1ccccc1 — higher, > 42.8 µg/mL
- Cc1cc(C)c2c(ccc3cccc[n+]32)c1.[O-][Cl+3]([O-])([O-])[O-] — higher, > 46.2 µg/mL
- O=C(CCl)c1ccc2[nH]c(=O)oc2c1 — higher, > 31.7 µg/mL
- CC(=O)Nc1ccc(NC(=S)NC(=O)/C=C/c2ccco2)cc1 — 1.6-fold higher, 32.3 µg/mL (≈ 98.1 µM)
- Cc1c(C(=O)OCC(=O)N2CCN(c3ccccc3)CC2)oc2ccccc12 — 4.6-fold lower, 4.5 µg/mL (≈ 11.9 µM)
- Cc1cc(Cl)ccc1OCCCC(=O)NCc1ccccn1 — higher, > 47.8 µg/mL
- Cc1cc(NCCCN(C)C)n2c(nc3ccccc32)c1C#N — higher, > 46.1 µg/mL
- NC(=O)c1ccc(NC(=O)CNC(c2ccccc2)c2ccccc2)cc1 — 5.6-fold lower, 3.7 µg/mL (≈ 10.3 µM)
- C=CCNC(=S)N1CCC(C(=O)c2ccc(Cl)cc2)CC1 — 2.1-fold higher, 43.5 µg/mL (≈ 135 µM)
- CC(=O)c1ccc(NC(=O)COC(=O)c2c[nH]c3ccccc23)cc1 — 12-fold lower, 1.8 µg/mL (≈ 5.35 µM)
- COc1ccc(NC(=O)c2ccccc2NC(=O)C2CC=CCC2C(=O)O)cc1 (stereo not given) — higher, > 59.2 µg/mL
- O=C(Nc1cccc(Cl)c1)Nc1ccon1 — 1.9-fold lower, 10.7 µg/mL (≈ 45 µM)
- Cc1ccc(NC(=S)c2ccncc2)c(C)c1 — 1.7-fold higher, 34.2 µg/mL (≈ 141 µM)
